Source: US20100055179A1, “Composition of and Method for Preparing Orally Disintegrating Tablets Containing a High Dose of Pharmaceutically Active Ingredients” (MALLINCKRODT INC., priority 2006, published 2010)

Experiments:
Format in all cases: physicochemical
[1] = Hardness test (tablet crushing load, Varian VK-200)
Method: (1) Hardness test-The ODT tablet crushing load, which is the force (kilopond, kP) required to break a tablet into halves by compression in the diametral direction, was measured with a hardness tester (Varian Hardness Tester, VK-200).

[2] = Friability test (USP <1216>)
Method: (2) Friability test-The friability test method was performed by a Varian Friabilator according to the USP tablet friability method described in <1216> Tablet Friability of the General chapters describing General Test Assays.

[3] = In vitro disintegration test (USP Test No. 701)
Method: (3) In vitro disintegration test-The disintegration time of the tablets was determined according to U.S. Pharmacopeia, Test No. 701.

[4] = Wetting test (simulated in vivo disintegration time)
Method: (4) Wetting Test-One Whatman filter disc (21 mm in diameter) was placed in each well of a Corning 12-well polystyrene microplate (22 mm in diameter). One and a half […] of Sensient Blue #1 dye solution (similar to in vivo conditions-tongue surface) was then added into each well. An ODT tablet was carefully placed on the surface of the wet paper disc in each well using a pair of forceps, tablet face flat on the filter paper. Finally, the total wetting time was recorded as the time required for the blue dye solution to cover the surface of the tablet as simulated in vivo disintegration time.

[5] = 0.3% (w/w) APAP as COMPAP with Formulation A granules, Example 4
[6] = 0.3% (w/w) regular APAP blended with Formulation A granules, 400 mg tablet, Example 2
[7] = 0.3% (w/w) regular APAP wet-granulated with Formulation A, Example 3
[8] = 1.0% (w/w) APAP as COMPAP with Formulation A granules, Example 4
[9] = 1.0% (w/w) regular APAP blended with Formulation A granules, 400 mg tablet, Example 2
[10] = 1.0% (w/w) regular APAP wet-granulated with Formulation A, Example 3
[11] = 10.0% (w/w) APAP as COMPAP with Formulation A granules, Example 4
[12] = 10.0% (w/w) regular APAP blended with Formulation A granules, 400 mg tablet, Example 2
[13] = 10.0% (w/w) regular APAP wet-granulated with Formulation A, Example 3
[14] = 15.0% (w/w) regular APAP blended with Formulation A granules, 400 mg tablet, Example 2
[15] = 20.0% (w/w) APAP as COMPAP with Formulation A granules, Example 4
[16] = 20.0% (w/w) regular APAP wet-granulated with Formulation A, Example 3
[17] = 30.0% (w/w) APAP as COMPAP with Formulation A granules, Example 4
[18] = 30.0% (w/w) regular APAP wet-granulated with Formulation A, Example 3
[19] = 40.0% (w/w) APAP as COMPAP with Formulation A granules, Example 4
[20] = 50.0% (w/w) APAP as COMPAP with Formulation A granules, Example 4

Hardness [1, 5]: 7.9 kP
Hardness [1, 6]: 8.1 kP
Hardness [1, 7]: 8.1 kP
Hardness [1, 8]: 7.6 kP
Hardness [1, 9]: 9.3 kP
Hardness [1, 10]: 8.6 kP
Hardness [1, 11]: 8.0 kP
Hardness [1, 12]: 6.5 kP
Hardness [1, 13]: 8.5 kP
Hardness [1, 14]: 6.8 kP
Hardness [1, 15]: 9.1 kP
Hardness [1, 16]: 7.5 kP
Hardness [1, 17]: 7.2 kP
Hardness [1, 18]: 7.9 kP
Hardness [1, 19]: 5.7 kP
Hardness [1, 20]: 4.2 kP
Friability [2, 5]: 0.5%
Friability [2, 6]: 0.02%
Friability [2, 7]: 0.3%
Friability [2, 8]: 0.3%
Friability [2, 9]: 0.03%
Friability [2, 10]: 0.2%
Friability [2, 11]: 0.5%
Friability [2, 12]: 0.46%
Friability [2, 13]: 0.0%
Friability [2, 14]: 0.08%
Friability [2, 15]: 0.0%
Friability [2, 16]: 0.2%
Friability [2, 17]: 0.5%
Friability [2, 18]: 0.0%
Friability [2, 19]: 0.0%
Friability [2, 20]: 0.3%
USP-DIT (in vitro disintegration time, USP method) [3, 5]: 26 s
USP-DIT (in vitro disintegration time, USP method) [3, 6]: 18 s
USP-DIT (in vitro disintegration time, USP method) [3, 7]: 12 s
USP-DIT (in vitro disintegration time, USP method) [3, 8]: 15 s
USP-DIT (in vitro disintegration time, USP method) [3, 9]: 20 s
USP-DIT (in vitro disintegration time, USP method) [3, 10]: 12 s
USP-DIT (in vitro disintegration time, USP method) [3, 11]: 11 s
USP-DIT (in vitro disintegration time, USP method) [3, 12]: 9 s
USP-DIT (in vitro disintegration time, USP method) [3, 13]: 18 s
USP-DIT (in vitro disintegration time, USP method) [3, 14]: 10 s
USP-DIT (in vitro disintegration time, USP method) [3, 15]: 11 s
USP-DIT (in vitro disintegration time, USP method) [3, 16]: 19 s
USP-DIT (in vitro disintegration time, USP method) [3, 17]: 16 s
USP-DIT (in vitro disintegration time, USP method) [3, 18]: 28 s
USP-DIT (in vitro disintegration time, USP method) [3, 19]: 16 s
USP-DIT (in vitro disintegration time, USP method) [3, 20]: 16 s
Wetting time [4, 5]: 15 s
Wetting time [4, 6]: 12 s
Wetting time [4, 7]: 18 s
Wetting time [4, 8]: 16 s
Wetting time [4, 9]: 11 s
Wetting time [4, 10]: 21 s
Wetting time [4, 11]: 22 s
Wetting time [4, 12]: 10 s
Wetting time [4, 13]: 30 s
Wetting time [4, 14]: 9 s
Wetting time [4, 15]: 30 s
Wetting time [4, 16]: 25 s
Wetting time [4, 17]: 45 s
Wetting time [4, 18]: 21 s
Wetting time [4, 19]: 65 s
Wetting time [4, 20]: 117 s
SMILES: CC(=O)Nc1ccc(O)cc1 [APAP, Acetaminophen]
